This is an account of results in US6964960B2, “Indoloquinazolinones” (Novartis AG, priority 2000, dated 2005).

In data set [1] the test system is pentobarbital-anesthetized rabbit myocardial infarction. Nature of the data set: pentobarbital-anesthetized rabbit myocardial infarction model. Type of data set: in vivo. The text has this:
The cardioprotective activity of the agents of the invention is confirmed in vivo e.g. in a model of pentobarbital-anesthetized rabbit myocardial infarction where the infarct size is reduced upon administration of about 1 to about 100 μmol/kg [For the model, see for example Ytrehus K. et al., Am. J. Physiol 267 (Heart Circ. Physiol. 36): H2383-2390, 1994 and Haessler R. et al., Cardiov. Res. 28: 1574-1580, 1994; for the cardioprotective effect of PARP inhibitors as evidenced in this model, see for example Thiemermann C. et al., Proc. Natl. Acad. Sci. USA 94: 679-683, 1997].

As a reminder, the melting point is the temperature of the solid-liquid transition. Take `Cl.Cl.O=c1[nH]c2c(CCNCCN3CCOCC3)c3ccccc3n2c2ccccc12`: the melting point lay in the range of 196 to 198 °C.

`CCc1c2ccccc2n2c1[nH]c(=O)c1ccccc12` [Example 1, 7-Ethyl-6H-indolo[1,2-a]quinazoline-5-one] returned a melting point of 245 to 260 °C.

As to `O=c1[nH]c2c(Cc3nnn[nH]3)c3ccccc3n2c2ccccc12` [Example 22, 7-(1 H-Tetrazole-5-ylmethyl)-6H-indolo[1,2-a]quinazoline-5-one], the “reduction of infarct size” value in data set [1] (highest dose tested (70 μmol/kg i.v., 22.1 mg/kg of the base), single injection five minutes before reperfusion) was determined as 60%. For the same compound, the “effect on infarct size” value in data set [1] (single injection at 3-70 μmol/kg i.v. (0.95-22.1 mg/kg i.v. of the base) five minutes before reperfusion) is reported as “dose-dependently reduces infarct size”.

With `O=c1[nH]c2c(CCO)c3ccccc3n2c2ccccc12` [Example 61, 7-(2-Hydroxy-ethyl)-6H-indolo[1,2-a]quinazoline-5-one], the melting point lay in the range of 248 to 252 °C.

With `NCCc1c2ccccc2n2c1[nH]c(=O)c1ccccc12` [Example 64, 7-(2-Amino-ethyl)-6H-indolo[1,2-a]quinazoline-5-one], the melting point is above 300 °C.

With `CCC(N)Cc1c2ccccc2n2c1[nH]c(=O)c1ccccc12` (stereo not shown) [Example 65, 7-(2-Amino-butyl)-6H-indolo[1,2-a]quinazoline-5-one], the melting point is 165 to 195 °C (dec.).
